Experiment [1] deals with CHI3L1/galectin-3 interaction (hCHI3L1-His with galectin-3-GST) (Homo sapiens, UniProt P36222). Briefly: AlphaLISA, inhibition of CHI3L1/galectin-3 interaction. The experiment is classed as binding. For orientation: Alpha assays give light when donor and acceptor beads are brought close together.
Experiment [2] deals with CHI3L1 (hCHI3L1-His) (Homo sapiens, UniProt P36222). Briefly: SPR. It is filed as binding.

One may read the IC50 as the concentration at which inhibition is half-maximal. High values mean a need for much substance, low ones inhibition by little substance. Broadly, the Kd is the free concentration of one partner at which half of the binding sites on the other are occupied at equilibrium, for simple one-to-one binding. Low readings indicate a tighter complex, high ones a looser complex.

Sequence of CHI3L1 (hCHI3L1-His) (P36222 22-383): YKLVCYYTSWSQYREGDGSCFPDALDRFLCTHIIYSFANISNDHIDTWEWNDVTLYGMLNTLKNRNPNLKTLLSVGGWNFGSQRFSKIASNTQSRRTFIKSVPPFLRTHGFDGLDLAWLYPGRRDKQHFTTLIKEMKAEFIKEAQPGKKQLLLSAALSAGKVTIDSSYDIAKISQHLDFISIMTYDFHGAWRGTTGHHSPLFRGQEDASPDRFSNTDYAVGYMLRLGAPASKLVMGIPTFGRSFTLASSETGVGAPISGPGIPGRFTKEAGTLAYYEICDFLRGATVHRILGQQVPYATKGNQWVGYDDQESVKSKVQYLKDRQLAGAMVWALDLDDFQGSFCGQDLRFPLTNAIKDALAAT
Sequence of CHI3L1/galectin-3 interaction (hCHI3L1-His with galectin-3-GST) (P36222 22-383): as above
Sequence of CHI3L1/galectin-3 interaction (hCHI3L1-His with galectin-3-GST) (P17931 2-250 partner): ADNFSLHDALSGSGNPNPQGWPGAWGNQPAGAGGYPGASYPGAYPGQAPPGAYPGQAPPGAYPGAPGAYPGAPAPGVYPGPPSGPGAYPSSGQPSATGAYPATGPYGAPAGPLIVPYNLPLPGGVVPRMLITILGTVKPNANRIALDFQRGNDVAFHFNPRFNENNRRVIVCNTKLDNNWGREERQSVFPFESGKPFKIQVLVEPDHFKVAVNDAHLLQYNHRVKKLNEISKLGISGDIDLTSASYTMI

`CC1Cc2ccccc2CN1C(=O)NCc1cc(=O)n2ccccc2n1` (stereo not shown) [1-4] displayed an IC50 in experiment [1] of 23.5 ± 2 µM. This compound returned a Kd in experiment [2] of 10.4 ± 1 µM.

Regarding `Cc1c(NC(=O)Cn2cnc3sccc3c2=O)cnn1C1CCCC1` [1-7], in experiment [1], inhibition was half-maximal at 15.4 ± 4.7 µM (IC50). In experiment [2], this compound returned a Kd of 7.4 ± 0.78 µM.

The record behind these values is article doi:10.1101/2025.08.24.671973v1 (biorxiv, 2025).
